Laboratory results from PMC7998250, “Temperate Zone Plant Natural Products—A Novel Resource for Activity against Tropical Parasitic Diseases” (Pharmaceuticals, 2021).
Read-outs that look alike come from different tables or passages of the source.

How the values were obtained:
[1] = test system: 700022-resistant line of L. mexicana (r22) axenic amastigotes; assay: EC50 in 700022-resistant L. mexicana (r22) axenic amastigotes; format: cell-based, Leishmania mexicana; conditions: for r22 8 weeks RI (resistance index, EC50 in r22/EC50 in WT): 8 weeks of 700022 selection pressure
Procedure: A 700022-resistant line of L. mexicana (r22) was generated using a previously reported method (Figure S3). […] All leishmanicidal sterols identified were assayed against r22 after 8 weeks of 700022 pressure and cross-resistance was found against all four compounds, each with a similar resistance index of between 4–5 (Figure 6c). Following 28 weeks of selection, the morphology of the r22 promastigotes was compared to that of WT (Figure 6d). […] The body area of both promastigotes and amastigotes was also assessed, noting a small (c 20%) decrease in the body area of r22 parasites compared to WT strains (Figure S3).
Figure 6 Comparison between wildtype and 700022-resistant (r22) L. mexicana cell lines. Log concentration versus normalised (compared to untreated control) growth curves for wildtype (WT) and corresponding 700022-selected (r22) L. mexicana (a) promastigotes and (b) axenic amastigotes. Error bars represent upper and lower limits of the StDev (n = 9). […] The resistance index (EC50 in r22/EC50 in WT) are shown for each compound. (d) Scanning electron micrographs of WT and r22 promastigotes illustrating the shortened flagellum in r22 parasites. (e) Analysis of flagellum length in WT and r22 promastigotes (n = 287 of each strain) reported using a box and whisker plot (boxes represents the 25–75th percent distribution with the mean as a horizontal line, whiskers represent the distribution of all values) with a statistically significant difference (Mann–Whitney U test, p-value < 2.2 × 10^−16). […] Error bars represent upper and lower limits of the StDev (n = 9). […] The resistance index (EC50 in r22/EC50 in WT) are shown for each compound. TEXT PRINTED IN THE PICTURE: (c) 700022: 4.1 | (c) 700107: 4.1 | (c) 700136: 5.3 | (c) 700240: 5.3 | (f) 700022: 42.1 | (f) Milt: 17.9 | (f) Pent: 0.75 | (f) AmpB: 1.22 DOUBTS OF THE COPYIST ABOUT THIS PICTURE: Panels c and f: the numbers printed above the bar pairs have no measure or unit printed with them in the picture.
L. mexicana parasites were grown in increasing concentrations of 700022 in a stepwise manner, as previously described. […] A dose response assay of the newly selected promastigotes was completed as stated above, with the exception of the seeding density of 1 × 10^5 cells/mL. At this point, the drug pressure was increased to the concentration of the new EC50 value.

P. falciparum 3D7 = assay: Concentration-response EC50, P. falciparum 3D7; format: cell-based; conditions: Plasmodium falciparum
Text: This is not surprising as the rate of kill is a result of the mechanism of cell death and, given their structural similarity, these three bisobolane sesquiterpene glycosides likely share the same target(s), albeit with some differences in affinity. The rate of kill, relatively, falls between that of atovaquone and dihydroartemisinin and is more similar to that of chloroquine.

T. evansi = assay: Concentration-response EC50, T. evansi; format: cell-based; conditions: Trypanosoma evansi, 48 h, read-out: T. evansi EC50
Text: Initial hits from the parasite panel screen were taken forward in log concentration versus normalised response assays to estimate the half maximal effective concentration (EC50) in hit species as well as the half maximal cytotoxic concentrations (CC50) in the human hepatoma cell line HepG2 as a preliminary test for selectivity. Using CC50/EC50 to define the selectivity index (SI), the selectivity for each compound in a defined species compared to a human cell line was estimated and compared to the EC50 (Figure 3).
EC50 values were determined by serial two-fold dilution of each compound in 96 well plates. Culture conditions and viability assays were as stated for the initial screen, with some exceptions. L. mexicana and L. donovani axenic amastigotes were seeded at 2 × 10^6 cell/s mL, T. brucei and T. evansi were seeded at 2 × 10^5 cells/mL. For cytotoxicity studies, HepG2 cells were seeded at 1 × 10^5 cells/mL, incubated for 48 h and viability was assessed using the Alamar Blue assay [66, 67]. […] Normalised growth and viability data (compared to untreated controls) were plotted against Log10 concentration to estimate EC50 in GraphPad (Prism v6).

[2] = test system: activated monocyte cell line (THP-1); assay: Cytotoxicity CC50, differentiated THP-1, Alamar Blue; format: cell-based, human; conditions: for CC50: differentiated THP-1, 48 h, read-out: THP1 CC50
[3] = Leishmania mexicana, read-out: r22 8 weeks EC50, r22 after 8 weeks of 700022 selection pressure
[4] = 3D7, read-out: P. falciparum 3D7 EC50

Structure (SMILES) | r22 8 weeks RI (resistance index, EC50 in r22/EC50 in WT) [1] | EC50 [1, 3] [nM] | EC50 (P. falciparum 3D7; [4]) [nM] | EC50 (T. evansi) [nM] | other results
CC1=CC(O)(CC(C)C2(C)CC=C3C4=CCC5C(C)(C)C(=O)CCC5(C)C4CCC32C)OC1=O (stereo not shown) [Compound 700136] | 5.3 | 1100 | – | – | –
C=C1C(=O)OC2CC(C)C3C=CC(=O)C3(C)C(OC(=O)C(C)C)C12 (stereo not shown) [Compound 701157] | – | – | 2100 | 191 | –
C=C1C(=O)OC2CC(C)C3C=CC(=O)C3(C)C(OC(C)=O)C12 (stereo not shown) [Compound 701155] | – | – | 2900 | 135 | CC50 [2]: 380 nM
CC1=CC(O)(CC(C)C2(C)CC=C3C4=CCC5C(C)(C)C(O)CCC5(C)C4CCC32C)OC1=O (stereo not shown) [Compound 700022] | 4.1 | 1000 | – | – | EC50 ([1]; Leishmania mexicana, read-out: r22 28 weeks EC50, r22 after 28 weeks of 700022 selection pressure): 10100 nM; EC50 ([1]; read-out: r22 28 weeks EC50, r22 after 28 weeks of 700022 selection pressure): 10000 nM
CC1=CC(O)(CC(C)C2(C)CCC3C4=CCC5C(C)(CCC(O)C5(C)C)C4=CCC32C)OC1=O (stereo not shown) [Compound 700107] | 4.1 | 1100 | – | – | –
C/C(=C/C(=O)CC(C)C1CCC2(C)C3=CCC4C(C)(C)C(=O)CCC4(C)C3CCC12C)C(=O)O (stereo not shown) [Compound 700240] | 5.3 | 2700 | – | – | selectivity index (THP-1 CC50 / L. mexicana EC50) ([2]; L. mexicana compared to THP-1): 21; CC50 [2]: 14000 nM
C=C1C(=O)OC2CC(C)C3C=CC(=O)C3(C)C(OC(=O)C(C)CC)C12 (stereo not shown) [Compound 701158] | – | – | 1500 | 244 | –
CC1OC(OC2C(OC(=O)C3CC[C@@H]4[C@H](C3)OC3(CC(OC(=O)/C=C/c5ccccc5)[C@@H](C)CO3)C43CO3)OC(CO)C(O)C2O)C(O)C(O)C1O (stereo partly shown) [Compound 700042] | – | – | 190 | 618 | –
C=C1C(=O)OC2CC(C)C3C(OC)CC(=O)C3(C)C(OC(=O)C(C)CC)C12 (stereo not shown) [Compound 701159] | – | – | – | – | EC50 (P. falciparum 3D7; 3D7, intraerythrocytic, read-out: P. falciparum 3D7 EC50): 4600 nM
